How the values were obtained:
[1] = test system: Native pine trees (Auracaria spp.); assay: Native pine trees spray; format: in vivo; conditions: sprayed 28 Jun. 2019
Excerpt: Native pine trees (Auracaria spp.) of differing varieties, also on the same property as in Example 8, were also sprayed on the 28 Jun.

rat = conditions: ingestion; cited from earlier work
[2] = test system: insects, annelids, crustaceans, molluscs, arachnids, birds and animals; assay: Observed effect on other small organisms, birds and animals; format: in vivo; conditions: TMT diluted with water as in the embodiments and examples
Excerpt: The LD-50 for the rat is 2× the body mass of the rat, so it would drown before dying by ingestion.

[3] = test system: native bloodwood (Eucalyptus) trees; assay: Bloodwood trees, bark and soil drench (Example 3); format: in vivo; conditions: 0.03% w/v, three applications drenching bark and surrounding soil; trees appeared to be dying
Description: On 10 Apr. 2017 TMT supplied in a 15% aqueous solution diluted in rainwater at 1 in 500 (10 ml/5 L), namely in 0.03% w/v aqueous solution was first applied by drenching the bark and surrounding soil for each of the three.
Second and third similar applications of a 0.03% w/v TMT aqueous solution were made to the three trees on 3 June and 27 June respectively.

[4] = test system: Araucaria, Cassia and Bauhinia, Grevillea; assay: Tree trials, spraying; format: in vivo; conditions: 0.03% w/v spray; after a few weeks of spraying
[5] = test system: blue gum, spotted gum, blood wood, lemon scented gum, Moreton Bay ash and Corymbia costata; assay: Additional Eucalypt trials, bark spray; format: in vivo, Eucalypts; conditions: bark sprayed; drought conditions, Phytophthora in the soil
Description: Additional trials were also carried out on Eucalypts other than that described in Example 3.
Under current drought conditions and the presence of Phytophthora in the soil, all of the additional trees we trialled looked close to death. The bark of all the following trees were sprayed viz. blue gum, spotted gum, blood wood, lemon scented gum, Moreton Bay ash and Corymbia costata.

[6] = test system: fungal pathogens Phellinus and Phytophthora; assay: Mango orchard foliar and stem spray, fungal pathogens (Example 5); format: in vivo; conditions: 0.03% w/v, foliar and stem spray 2 litre/tree, once, twice or three times two weeks apart; three mango trees
Description: TMT supplied in a 15% aqueous solution diluted in rainwater at 1 in 500 (10 ml/5 L), namely in 0.03% w/v aqueous solution was used. These three trees were foliar and stem sprayed (2 litre/tree each time) with the solution, once, twice or three times some two weeks apart. The fungal pathogen was killed. The growth response was extraordinary, but in order of the number of sprays. Leaves in both number and size followed suit as did flower spikes and fruit set. Fruit harvested was 10% greater in mass for each additional spray.

[7] = test system: blue grass, couch, Rhodes and turf grasses; assay: Grass trials (die back); format: in vivo
Description: Trials were performed on grazing land, a football field, a house front lawn with controls and on golf course couch greens. In all trials on soil with spray application (50 L/50 m^2) relative to controls with water only or TMT+humate solution applied in zeolite or in biochar+/− TMT and humate, 1 kg/10 m^2 with 40 L of solution/T of absorbent.

Phytophthora = assay: Laboratory study on Phytophthora in avocado soil (Example 4); format: cell-based
Description: Laboratory study on Phytophthora (30 Sep. 2017 onwards to August 2018)
Crop avocado soil with Phytophthora.
Treatment TMT supplied in a 15% aqueous solution diluted at 1:500 (10 ml/5 L)

Phytothphora cinnamomi = assay: Contact kill of soil borne fungal pathogens; format: cell-based; conditions: TMT diluted with water
Excerpt: (§1) TMT diluted with water kills the soil borne fungal pathogens, Phytothphora cinnamomi, Pithium spp., and Phellinus spp. on contact.

Phellinus spp. = assay: Contact kill of soil borne fungal pathogens; format: cell-based; conditions: TMT diluted with water
Excerpt: as §1

Pithium spp. = assay: Contact kill of soil borne fungal pathogens; format: cell-based; conditions: TMT diluted with water
Excerpt: as §1

[8] = test system: other soil microbes including other pathogens, fungi, bacteria as well as other soil or water borne biota; assay: Toxicity to other soil microbes and biota; conditions: TMT diluted with water
[9] = test system: avocado (Persea americana); assay: Avocado orchard soil spray trial (Example 1); format: in vivo
Description: In an avocado (Persea americana) orchard in Queensland, an area of the orchard was selected with poor tree health.
TMT supplied in a 15% aqueous solution was diluted in collected rainwater at 1 in 400, namely in a 0.0375% w/v aqueous solution, was applied with a fire-fighting pump and sprayed to the soil only beneath two trees. This spraying mimicked a tree sprinkler application and was applied as twenty litres per tree.

Macadamia tree = Macadamia tree foliar spray, early flowering; format: in vivo
Excerpt: On the same property as in Example 8, a Macadamia tree was also foliar sprayed on 28 Jun.

mango (Mangifera indica) = assay: Mango orchard foliar and stem spray, growth and fruit (Example 5); format: in vivo
Description: TMT supplied in a 15% aqueous solution diluted in rainwater at 1 in 500 (10 ml/5 L), namely in 0.03% w/v aqueous solution was used. These three trees were foliar and stem sprayed (2 litre/tree each time) with the solution, once, twice or three times some two weeks apart.

Rhodes grass = Rhodes grass pasture dieback trial (Example 2); format: in vivo; conditions: 0.03% w/v applied 27 Jun. 2017; sample taken 8 Aug., kept in 10 ml rainwater, observed by 28 Aug. 2017; no change on untreated control
Description: On a property near Gin Gin, Queensland a pasture area of Rhodes grass was suffering from “pasture dieback”.
On 27 Jun. 2017 TMT supplied in a 15% aqueous solution diluted in rainwater at 1 in 500 (10 ml/5 L), namely in a 0.03% w/v aqueous solution was applied to a portion of that pasture area hereinafter referred to as the “treated grass”.
On 8 Aug. 2017 grass samples were taken from the treated grass (as a test sample) and from the surrounding untreated grass (as a control sample), and each of these grass samples were placed in separate open containers containing 10 ml of rainwater.

[10] = test system: hemp, macadamias, grapes, citrus (mandarins) and capsicum; assay: Various other crop trials, spraying; format: in vivo; conditions: 0.03% w/v spray
[11] = test system: Phellinus (fungal pathogen); assay: Second mango trial, fungal pathogen (Example 6); format: in vivo; conditions: spraying as in Example 5; Phellinus fruiting bodies under the bark at start
[12] = Growth stimulation by TMT mixed with liquid humate solution and powdered zeolite; format: in vivo; conditions: TMT mixed with a liquid humate solution containing fine powdered zeolite (<40 u)
[13] = test system: mango trees (cv Kensington Pride); assay: Second mango trial, fruit and tree health (Example 6); format: in vivo, Mangifera indica
[14] = test system: mango (Mangifera indica) trees (cv Kensington Pride); assay: Mango early flowering and fruiting, foliar spray (Example 8); format: in vivo; conditions: 0.03% w/v
Description: These mango trees are in rocky poor soil, that is not irrigated.
On 28 Jun. 2019, TMT supplied in a 15% aqueous solution diluted in rainwater at 1 in 500 (10 ml/5 L), namely in 0.03% w/v aqueous solution was applied by foliar spraying.

Phellinus = assay: Similar laboratory study on Phellinus from avocado and Eucalyptus; format: cell-based; conditions: similar TMT aqueous solutions; pathogens found on avocado and Eucalyptus
Fusarium oxysporum = assay: Banana plantation foliar spray trial (Example 7); format: in vivo; conditions: 0.03% w/v foliar spray, seven affected banana plants (cv Lady Finger); no change in water-sprayed control
Description: On a banana (Musa) plantation in Queensland, banana plants (cv Lady Finger) were identified to be affected with Fusarium oxysporum (an ascomycete fungus). Vascular colourisation was seen where the fungus had colonised. A trial using foliar sprays was used. TMT supplied in a 15% aqueous solution diluted in rainwater at 1 in 500 (10 ml/5 L), namely in 0.03% w/v aqueous solution was used for the foliar spraying of seven affected banana plants.

Pithium = assay: Similar laboratory study on Pithium from avocado and Eucalyptus; format: cell-based; conditions: similar TMT aqueous solutions; pathogens found on avocado and Eucalyptus
[15] = aqueous solution and foliar and stem spraying as in Example 5
[16] = thirty-six days, without watering or fertilizer since spraying

For Sc1nc(S)nc(S)n1 [TMT, 1,3,5-Triazinane-2,4,6-Trithione], the “new growth out of season” value [1] is given as “gone into new growth”, the LD-50 (rat) is given as 2 × the body mass of the rat and the “effect on other small organisms, birds and animals” value [2] is given as “benign”. For the same molecule, the “new shoots and leaf growth” value [3] was “new shoots from branch axils and new leaf growth appeared”, the “growth of trees showing poor growth” value [4] was “marked improvement with growth” and the “response of trees close to death” value [5] was “slow but consistent response, with epicormic buds appearing on the tree trunks, under the bark and new leaves appearing on apparently dead branches”. The “effect on fungal pathogen” value [6] was “killed”, the “dry matter, mass relative to the control” value ([7]; 0.03% w/v spray) was 200% +/−4 and the “effect on mite infection” value ([7]; 0.03% w/v spray) was “overturned the mite infection”. The “treatment of grass die back from Phellinus and Pithium” value ([7]; 0.03% w/v spray, range of grass species, cause uncertain due to mealy bug) was “successful”, the “time until dead patches were resolved completely” value ([7]; spray 50 L/50 m^2 on grazing land, house front lawn, golf course couch greens, except the football field (chlorinated town water)) was 10 to 14 days and the “development of spores that break out of sporangias” value (Phytophthora; 15% aqueous solution diluted at 1:500) was “do not develop”. The “effect on Phytophthora” value (Phytophthora; 15% aqueous solution diluted at 1:500 (10 ml/5 L), avocado soil with Phytophthora) was “kills and stops lifecycle of Phytophthora”, the kill on contact (Phytothphora cinnamomi) was “kills” and the kill on contact (Phellinus spp.) was “kills”. The kill on contact (Pithium spp.) was “kills”, the “toxicity to other soil microbes and biota” value [8] was “not to be toxic” and the “indications of new growth” value ([9]; 0.0375% w/v aqueous solution, 20 L per tree sprayed to soil beneath two trees, within one week of spraying) was “marked new growth”. For the same molecule, the feeder roots examined ([9]; 0.0375% w/v, soil spray, about seven and a half months after spraying) was “healthy feeder roots and earthworms were found”, the “growth in size more than the surrounding trees” value ([9]; 0.0375% w/v, soil spray, within four months) was 20-25% and the “appearance of treated trees versus surrounding trees” value ([9]; 0.0375% w/v, soil spray, within seven weeks of spraying) was “significantly different to the surrounding trees”. The flowering (Macadamia tree; 0.03% w/v foliar spray 28 Jun. 2019, after about two weeks, normally flowers in late August) was “came into flower”, the flowering (Macadamia tree; 0.03% w/v, after three weeks) was “continued to produce flowers” and the “flower maturation and fruit (nut) set” value (Macadamia tree; 0.03% w/v, by 3rd August, some thirty-six days after spraying) was “the flowers have matured and the setting of fruit(nut) has commenced”. The fruit growth (Macadamia tree; 0.03% w/v, by 28 Sep. 2019, some ninety-six days from spraying) was “growing apace”, the growth response (mango (Mangifera indica); 0.03% w/v, foliar and stem spray, one to three sprays, response in order of the number of sprays) was “extraordinary” and the “fruit harvested, greater in mass for each additional spray” value (mango (Mangifera indica); 0.03% w/v, foliar and stem spray, per additional spray) was 10%. The “leaves in number and size, flower spikes and fruit set” value (mango (Mangifera indica); 0.03% w/v, one to three sprays, relative to order of number of sprays) was “followed suit”, the fruit sweetness (mango (Mangifera indica); observed but not measured) was “sweeter with increased spraying” and the “shoot and root formation on treated grass sample” value (Rhodes grass) was “shoots and roots formed thereon”. For the same molecule, the “growth of crop plants” value [10] was “improvement of growth”, the “effect on fungal pathogen” value [11] was “killed” and the “functionality to stimulate growth” value [12] was “increased synergistically”. The “brix (sugar content measurement) higher than the control trees” value [13, 15] was “approximately 10%”, the fruit sweetness [13, 15] was “noticeably sweeter” and the “disease and insect predators versus surrounding trees” value ([13]; spraying as in Example 5) was “much less disease and fewer insect predators”. The “leaves of treated trees versus surrounding trees” value ([13]; spraying as in Example 5) was “bigger brighter green leaves”, the frost damage ([13]; unseasonal frost, nearby unsprayed trees were subject to frost damage) was “not affected by an unseasonal frost” and the flowering ([14]; single foliar spray 28 Jun. 2019, within two weeks, normal flowering end of August) was “coming into flower”. For the same molecule, the “flower maturation and fruit set” value ([14]; by 3 Aug. 2019, some thirty-six days from spraying) was “the initiated flowers had matured, and the setting of fruit had commenced”, the flowering ([14]; by 18 July, some three weeks after spraying) was “continue showing flowering” and the fruit growth ([14]; by 28 Sep. 2019, some ninety-six days from spraying) was “growing apace”. For the same molecule, the new flowering [14, 16] was “abundance of new flowering”, the signs of stress [14, 16] was “not showing any signs of stress” and the “effect on Phellinus in samples” value (Phellinus) was “appeared to have been killed”. For the same molecule, the “success on killing off the fungus on affected plants” value (Fusarium oxysporum) was 100% and the “effect on Pithium in samples” value (Pithium) was “appeared to have been killed”.

Source: patent publication US11985977B2, “Use of composition as a growth promotant for plants” (UENME Global Pty LTD, priority 2018, dated 2024)
